Values of other authors in patent publication US20230346889A9, “TREATMENT OF ACUTE HEART FAILURE” (AnaCardio R&D AB, priority 2019, published 2023).
Non-standard residues stand in square brackets, D forms with d. Residues, ends and D or L forms follow the SMILES beside them. dTrp(2-Me) = Cc1[nH]c2ccccc2c1C[C@@H](N)C(=O)O; d2Nal = N[C@H](Cc1ccc2ccccc2c1)C(=O)O

How the values were obtained:
[1] = test system: patients with heart failure; conditions: cited from earlier work; for association with mortality: observational ADHERE Registry
[2] = test system: dogs with acute myocardial infarction; conditions: US2004014671A1; cited from earlier work

Structure (SMILES)	improvement of CO [2]	association with mortality [1]	further results
C[C@@H]1CC(=O)NN=C1c1ccc(NN=C(C#N)C#N)cc1 [Levosimendan]	–	–	hypotension and arrhythmias vs. placebo ([1]; REVIVE I and II): increased hypotension and arrhythmias vs. placebo; effect on CO and blood pressure ([1]; human, in vivo): increases CO but also causes hypotension
C[C@H](NC(=O)[C@@H](Cc1ccc2ccccc2c1)NC(=O)[C@@H](C)N)C(=O)N[C@@H](Cc1c[nH]c2ccccc12)C(=O)N[C@H](Cc1ccccc1)C(=O)N[C@@H](CCCCN)C(N)=O [Pralmorelin] (H-[dA][d2Nal]AW[dF]K-NH2)	improved	–	–
CC(CCc1ccc(O)cc1)NCCc1ccc(O)c(O)c1 (stereo not shown) [dobutamine]	–	independently associated with increased mortality	–
Cc1[nH]c2ccccc2c1C[C@@H](NC(=O)[C@@H](N)Cc1cnc[nH]1)C(=O)N[C@@H](C)C(=O)N[C@@H](Cc1c[nH]c2ccccc12)C(=O)N[C@H](Cc1ccccc1)C(=O)N[C@@H](CCCCN)C(N)=O [hexarelin] (H-H[dTrp(2-Me)]AW[dF]K-NH2)	not	–	–
Cc1[nH]c(=O)c(C#N)cc1-c1ccncc1 [milrinone]	–	independently associated with increased mortality	adverse outcomes vs. placebo ([1]; randomized OPTIME CHF): caused significantly more hypotension and atrial arrhythmias and non-significantly more deaths
